From patent US4250255A, “Assay method for isoenzyme activity” (Eastman Kodak Company, priority 1977, dated 1981)

Experiments:
[1] = system: isoenzymes of creatinine phosphokinase (CPK); experiment: Conventional coupled CPK assay (hexokinase, glucose-6-phosphate dehydrogenase); type: biochemical; conditions: conventional assay with coupled reactions, hexokinase and glucose-6-phosphate dehydrogenase
From the text: Of course, the particular amphiphile used and the concentration at which it is used will depend upon the particular isoenzyme being assayed. Not every amphiphile will have a discriminatory effect on the activity of isoenzymes in each isoenzyme system.

[2] = target: LD1 (Sus scrofa, UniProt P00336); experiment: LDH isoenzyme assay using a multilayer element; type: biochemical, porcine; design: purified porcine LDH isoenzymes; conditions: web with DSS 0.54 g/m^2 in the spreading-reagent layer; control web 11
Method: (§1) Analytical elements containing all of the reagents necessary to quantitate specific isoenzymes were prepared according to the following format:
(§2) A polycarbonate-subbed Lexan® support was coated with a reagent layer comprising agarose (2.7 g/m^2) and NADH (0.12 g/m^2) in 0.1 M Tris buffer at pH 7.4, and a spreading-reagent layer comprising Avicel® (43 g/m^2), sodium pyruvate (0.5 g/m^2), polyvinyl pyrrolidone (PVP) (2.15 g/m^2) in isopropyl alcohol, and sodium decylsulfate (DSS) (0.54 g/m^2).
(§3) Control webs were coated as above except no sodium decylsulfate was added to the spreading-reagent layer.
(§4) Two aqueous solutions of purified porcine LDH isoenzymes, one containing LD1 and the other LD5, were prepared in 0.01 M Tris buffer, pH 7.4, at approximately 90 mU/ml. Sample aliquots (10 μl) of each solution and a buffer control (0.01 M Tris) were spotted onto the webs which were then monitored in a POS unit for decreasing fluorescence of the NADH with respect to time at 340 nm.

[3] = target: LD5 (Sus scrofa, UniProt P00339); experiment: LDH isoenzyme assay using a multilayer element; type: biochemical, porcine; design: purified porcine LDH isoenzymes; conditions: web with DSS 0.54 g/m^2 in the spreading-reagent layer; control web 13
Method: as §1, §2, §3, §4

LD1, sequence (P00336 2-334): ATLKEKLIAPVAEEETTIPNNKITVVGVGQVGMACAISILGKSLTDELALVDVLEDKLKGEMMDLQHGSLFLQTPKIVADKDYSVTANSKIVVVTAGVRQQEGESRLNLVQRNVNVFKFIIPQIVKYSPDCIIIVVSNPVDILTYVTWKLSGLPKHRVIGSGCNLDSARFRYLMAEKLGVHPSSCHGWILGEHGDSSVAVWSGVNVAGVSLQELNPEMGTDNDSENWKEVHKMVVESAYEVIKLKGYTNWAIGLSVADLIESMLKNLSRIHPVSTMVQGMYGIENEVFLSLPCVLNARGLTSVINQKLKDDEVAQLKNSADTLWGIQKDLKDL

In the case of `CCCCCCCCCCOS(=O)(=O)[O-].[Na+]` [DSS, sodium decylsulfate], the “discriminatory effect on the activities of the isoenzymes of CPK” value [1] is reported as “do not appear to have any discriminatory effect”, the “Isoenzyme Activity LD1” value [2] is reported as 15 and the “Isoenzyme Activity LD5” value [3] is reported as 0.
